# Results from patent publication US9617259B2, “Histone deacetylase inhibitors and compositions and methods of use thereof” (CHDI Foundation, Inc., priority 2013, dated 2017).
# Biological target: human catalytic domain HDAC4 protein (amino acids 648-1032) (Homo sapiens (Human), UniProt P56524)
# Test: Inhibition of HDAC4 catalytic domain enzymatic activity, fluorogenic substrate Boc-Lys(Tfa)-AMC
# Settings: read-out: Biochemical HDAC-4 IC50
# Text: Analysis of Inhibition of HDAC4 with Class IIa Histone Deacetylase (HDAC) Inhibitors
# The potency of Class IIa Histone Deacetylase (HDAC) inhibitors is quantified by measuring the Histone Deacetylase 4 (HDAC4) catalytic domain enzymatic activity using the fluorogenic substrate, Boc-Lys(Tfa)-AMC. The substrate is deacetylated to Boc-Lys-AMC by HDAC4. Cleavage by trypsin results in the release of the fluorophore AMC from the deacetylated substrate. The fluorescence of the sample is directly related to the histone deacetylase activity in the sample.
# Serial dilutions of the HDAC inhibitors and control reference compound (1-(5-(3-((4-(1,3,4-oxadiazol-2-yl)phenoxy)methyl)-1,2,4-oxadiazol-5-yl)thiophen-2-yl)-2,2,2-trifluoroethanone) are made by first resuspending the lyophilized compound to a final concentration of 10 mM in 100% dimethyl sulfoxide (DMSO). Stocks of 60 μl aliquots of the 10 mM compound in DMSO are prepared and stored at −20° C. From one stock aliquot of each compound to be tested and the reference compound, a 16-point serial dilution is prepared according to
# 2 μl (200×) of each diluted solution and each control (full activity: 100% DMSO alone or full inhibition 1 mM) is stamped into V-bottomed polypropylene 384-well compound plates using either the Bravo (384-well head from Agilent) or 12.5 μl 16-channel Matrix multi-channel pipette (Matrix Technologies Ltd).
# A working solution of enzyme is prepared from a 500 μg/ml stock aliquot of HDAC4 catalytic domain (thawed on ice) diluted to 0.2 μg/ml with assay buffer (50 mM Tris-HCl, 137 mM NaCl, 2.7 mM KCl, and 1 mM MgCl2 at pH 8 and equilibrated to room temperature) just prior to the addition of the enzyme to the assay.
# 5× (50 μM) substrate is prepared just prior to the addition to the assay. A 1 mM substrate stock is made by diluting a 100 mM Boc-Lys(Tfa)-AMC in DMSO solution 1:100 by adding it drop-wise to assay buffer (equilibrated to room temperature) while vortexing at slow speed to prevent precipitation. The 5× substrate is prepared by diluting the 1 mM substrate solution 1:20 by adding it drop-wise to assay buffer (equilibrated to room temperature) while vortexing at slow speed to prevent precipitation.
# 3× (30 μM) Developer/Stop Solution is prepared just prior to addition to the plate by diluting a stock solution of 10 mM reference compound 1:333 in 25 mg/ml trypsin (PAA Laboratories Ltd.) equilibrated to room temperature.
# 5 μl of each solution of 1:20 diluted compound from above is transferred to a clear bottomed, black, 384-well assay plate using the Bravo or the Janus (384-well MDT head from Perkin Elmer). Using a 16-channel Matrix multi-channel pipette, 35 μl of the working solution of HDAC4 catalytic domain enzyme (0.2 μg/ml in assay buffer) is transferred to the assay plate. The assay is then started by adding 10 μl of 5× (50 μM) substrate to the assay plates using either the Bravo, Janus or 16-channel Matrix multi-channel pipette. The assay plate is then shaken for two minutes on an orbital shaker at 900 rpm (rotations per minute). Next the plate is incubated for 15 minutes at 37° C. The reaction is stopped by adding 25 al of 3× (30 μM) developer/stop solution to the assay plates using either the Bravo, Janus or a 16-channel Matrix multi-channel pipette. Assay plates are then shaken for 5 minutes on an orbital shaker at 1200 rpm. Next, the assay plates are incubated at 37° C. for 1 hour in a tissue culture incubator. Finally, the fluorescence is measured (Excitation: 355 nm, Emission: 460 nm) using PerkinElmer EnVision in top read mode.
# Sequence of human catalytic domain HDAC4 protein (amino acids 648-1032) (P56524 648-1032): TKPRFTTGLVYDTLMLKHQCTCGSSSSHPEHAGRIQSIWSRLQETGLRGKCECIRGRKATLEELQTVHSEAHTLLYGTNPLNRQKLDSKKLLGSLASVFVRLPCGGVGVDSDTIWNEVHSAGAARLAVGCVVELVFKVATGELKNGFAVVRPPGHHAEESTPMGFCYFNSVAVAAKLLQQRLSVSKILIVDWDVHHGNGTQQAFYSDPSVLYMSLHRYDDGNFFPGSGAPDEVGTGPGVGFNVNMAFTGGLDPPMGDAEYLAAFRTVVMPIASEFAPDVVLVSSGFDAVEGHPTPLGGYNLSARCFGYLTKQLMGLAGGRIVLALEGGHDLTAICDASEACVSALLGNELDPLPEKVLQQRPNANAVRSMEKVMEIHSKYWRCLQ
row,SMILES,IC50 [µM]
1,"Cc1c(F)cccc1[C@]1(C(=O)NO)C=C(c2ccccc2)CC1 [Example 1, (R)-1-(3-fluoro-2-methylphenyl)-N-hydroxy-3-phenylcyclopent-2-enecarboxamide]",7.6
2,"Cc1c(F)cccc1[C@@]1(C(=O)NO)C=C(c2ccccc2)CC1 [Example 2, (S)-1-(3-fluoro-2-methylphenyl)-N-hydroxy-3-phenylcyclopent-2-enecarboxamide]",0.02
3,"Cc1ccccc1C1=C[C@@](C(=O)NO)(c2cccc(F)c2C)CC1 [Example 3, (R)-1-(3-fluoro-2-methyl-phenyl)-N-hydroxy-3-(o-tolyl)cyclopent-2-ene-1-carboxamide]",0.23
4,"Cc1ccccc1C1=C[C@](C(=O)NO)(c2cccc(F)c2C)CC1 [Example 4, (S)-1-(3-fluoro-2-methyl-phenyl)-N-hydroxy-3-(o-tolyl)cyclopent-2-ene-1-carboxamide]",0.02
5,"Cc1c(F)cccc1[C@]1(C(=O)NO)C=C(c2cncc(F)c2)CC1 [Example 5, (R)-1-(3-fluoro-2-methylphenyl)-3-(5-fluoropyridin-3-yl)-N-hydroxycyclopent-2-enecarboxamide]",0.67
6,"Cc1c(F)cccc1[C@@]1(C(=O)NO)C=C(c2cncc(F)c2)CC1 [Example 6, (S)-1-(3-fluoro-2-methylphenyl)-3-(5-fluoropyridin-3-yl)-N-hydroxycyclopent-2-enecarboxamide]",0.01
7,"Cc1c(F)cccc1[C@]1(C(=O)NO)C=C(c2cnccn2)CC1 [Example 7, (R)-1-(3-fluoro-2-methylphenyl)-N-hydroxy-3-(pyrazin-2-yl)cyclopent-2-ene carboxamide]",> 50
8,"Cc1c(F)cccc1[C@@]1(C(=O)NO)C=C(c2cncc(Cl)c2)CC1 [Example 11, (S)-3-(5-chloropyridin-3-yl)-1-(3-fluoro-2-methylphenyl)-N-hydroxycyclopent-2-enecarboxamide]",0.02
9,"Cc1c(F)cccc1[C@@]1(C(=O)NO)C=C(c2ccc3nccnc3c2)CC1 [Example 12, (S)-1-(3-fluoro-2-methylphenyl)-N-hydroxy-3-(quinoxalin-6-yl)cyclopent-2-enecarboxamide]",0.01
10,"Cc1c(F)cccc1[C@@]1(C(=O)NO)C=C(c2ccnc(C(F)(F)F)c2)CC1 [Example 13, (S)-1-(3-fluoro-2-methylphenyl)-N-hydroxy-3-(2-(trifluoromethyl)pyridin-4-yl)cyclopent-2-enecarboxamide]",0.04
11,"Cc1c(F)cccc1[C@@]1(C(=O)NO)C=C(c2cncnc2)CC1 [Example 14, (S)-1-(3-fluoro-2-methylphenyl)-N-hydroxy-3-(pyrimidin-5-yl)cyclopent-2-enecarboxamide]",0.03
12,"Cc1c(F)cccc1[C@@]1(C(=O)NO)C=C(c2ccc(F)cn2)CC1 [Example 15, (S)-1-(3-fluoro-2-methylphenyl)-3-(5-fluoropyridin-2-yl)-N-hydroxycyclopent-2-enecarboxamide]",0.04
13,"Cc1c(F)cccc1[C@@]1(C(=O)NO)C=C(c2ccc(C(F)(F)F)nc2)CC1 [Example 16, (S)-1-(3-fluoro-2-methylphenyl)-N-hydroxy-3-(6-(trifluoromethyl)pyridin-3-yl)cyclopent-2-enecarboxamide]",0.02
14,"Cc1c(F)cccc1[C@@]1(C(=O)NO)C=C(c2cncc(C(F)(F)F)c2)CC1 [Example 17, (S)-1-(3-fluoro-2-methylphenyl)-N-hydroxy-3-(5-(trifluoromethyl)pyridin-3-yl)cyclopent-2-enecarboxamide]",0.03
15,"Cc1c(F)cccc1[C@@]1(C(=O)NO)C=C(c2cnn(C(F)F)c2)CC1 [Example 18, (S)-3-(1-(difluoromethyl)-1H-pyrazol-4-yl)-1-(3-fluoro-2-methylphenyl)-N-hydroxycyclopent-2-enecarboxamide]",0.02
16,"Cc1c(F)cccc1[C@@]1(C(=O)NO)C=C(c2cc(F)cnc2C2CC2)CC1 [Example 19, (S)-3-(2-cyclopropyl-5-fluoropyridin-3-yl)-1-(3-fluoro-2-methylphenyl)-N-hydroxycyclopent-2-enecarboxamide]",0.04
17,"Cc1c(F)cccc1[C@@]1(C(=O)NO)C=C(c2ccc3nc(C(F)(F)F)cnc3c2)CC1 [Example 20, (S)-1-(3-fluoro-2-methylphenyl)-N-hydroxy-3-(2-(trifluoromethyl)quinoxalin-6-yl)cyclopent-2-enecarboxamide]",0.07
18,"Cc1c(F)cccc1[C@@]1(C(=O)NO)C=C(c2ccn3ccnc3c2)CC1 [Example 21, (S)-1-(3-fluoro-2-methylphenyl)-N-hydroxy-3-(imidazo[1,2-a]pyridin-7-yl)cyclopent-2-enecarboxamide]",0.01
19,"Cc1c(F)cccc1[C@@]1(C(=O)NO)C=C(c2ccc3onc(C)c3c2)CC1 [Example 22, (S)-1-(3-fluoro-2-methylphenyl)-N-hydroxy-3-(3-methylbenzo[d]isoxazol-5-yl)cyclopent-2-enecarboxamide]",0.03
20,"COc1ncc(C2=C[C@](C(=O)NO)(c3cccc(F)c3C)CC2)cc1F [Example 23, (S)-1-(3-fluoro-2-methylphenyl)-3-(5-fluoro-6-methoxypyridin-3-yl)-N-hydroxycyclopent-2-enecarboxamide]",0.04
21,"Cc1c(F)cccc1[C@@]1(C(=O)NO)C=C(c2cnc(C3CC3)nc2)CC1 [Example 24, (S)-3-(2-cyclopropylpyrimidin-5-yl)-1-(3-fluoro-2-methylphenyl)-N-hydroxycyclopent-2-enecarboxamide]",0.02
22,"Cc1ccc(C2=C[C@](C(=O)NO)(c3cccc(F)c3C)CC2)cn1 [Example 25, (S)-1-(3-fluoro-2-methylphenyl)-N-hydroxy-3-(6-methylpyridin-3-yl)cyclopent-2-enecarboxamide]",0.01
23,"Cc1ncc(C2=C[C@](C(=O)NO)(c3cccc(F)c3C)CC2)cc1Cl [Example 26, (S)-3-(5-chloro-6-methylpyridin-3-yl)-1-(3-fluoro-2-methylphenyl)-N-hydroxycyclopent-2-enecarboxamide]",0.01
24,"Cc1c(F)cccc1[C@@]1(C(=O)NO)C=C(c2ccnn2C)CC1 [Example 27, (S)-1-(3-fluoro-2-methylphenyl)-N-hydroxy-3-(1-methyl-1H-pyrazol-5-yl)cyclopent-2-enecarboxamide]",0.02
25,"Cc1c(F)cccc1[C@@]1(C(=O)NO)C=C(c2cnn(CC(F)(F)F)c2)CC1 [Example 28, (S)-1-(3-fluoro-2-methylphenyl)-N-hydroxy-3-(1-(2,2,2-trifluoroethyl)-1H-pyrazol-4-yl)cyclopent-2-enecarboxamide]",0.02
26,"Cc1c(F)cccc1[C@@]1(C(=O)NO)C=C(c2cccc3cnsc23)CC1 [Example 29, (S)-3-(benzo[d]isothiazol-7-yl)-1-(3-fluoro-2-methylphenyl)-N-hydroxycyclopent-2-enecarboxamide]",0.03
27,"O=C(NO)C1(c2ccccc2)CC=CC1 [Example 30, N-hydroxy-1-phenyl-cyclopent-3-enecarboxamide]",12.3
28,"O=C(NO)C1(c2ccccc2F)CC=CC1 [Example 31, 1-(2-fluorophenyl)-N-hydroxy-cyclopent-3-enecarboxamide]",8.3
29,"Cc1c(F)cccc1[C@@]1(C(=O)NO)C=C(C2CC2)CC1 [Example 32, (S)-3-cyclopropyl-1-(3-fluoro-2-methylphenyl)-N-hydroxycyclopent-2-enecarboxamide]",0.04
